Key:
Assay type in all cases: in vivo
Bemisia tabaci = Bemisia tabaci (BEMITA spray treatment) on cotton leaf discs; conditions: 0.8 ppm active compound; spray on cotton leaf discs infested by whitefly larvae; 7 days
Description: Bemisia tabaci (BEMITA Spray Treatment)
To produce a suitable active compound preparation, 1 part by weight of active compound is mixed with the stated amounts of solvents and emulsifier, and the concentrate is diluted with emulsifier-containing water to the desired concentration.
Discs of cotton leaves (Gossypium hirsutum) infested by whitefly (Bemisia tabaci) larvae are sprayed with an active compound preparation of the desired concentration.
After 7 days, the effects in % is determined 100% means that all whiteflies have been killed; 0% means that none of the whiteflies have been killed.

Aphis gossypii = assay: Foliar application Aphis gossypii / cotton (spray test); conditions: spray on infested cotton plants, 6 days
Description: Foliar Application Aphis gossypii/Cotton
(§1) To produce a suitable active compound preparation, 1 part by weight of active compound is mixed with the stated amounts of solvent and emulsifier, and the concentrate is diluted with emulsifier-containing water to the desired concentration. For application with ammonium salts and penetrants (rapeseed oil methyl ester 500 EW), these ingredients are each added to the spray liquor in a concentration of 1000 ppm.
Cotton plants (Gossypium hirsutum) heavily infested by the cotton aphid (Aphis gossypii) are treated by spraying with the active compound preparation of the desired concentration. After 6 days, the kill in % is determined 100% means that all aphids have been killed; 0% means that no aphids have been killed.

Myzus persicae = assay: Foliar application Myzus persicae / bell peppers (spray test); conditions: spray on infested bell pepper plants, AMS and/or RME each 1000 ppm in spray liquor where named, 6 days
Description: Foliar Application Myzus persicae/Bell Peppers
as §1
Bell pepper plants (Capsicum annuum) heavily infested by the green peach aphid (Myzus persicae) are treated by spraying with the active compound preparation of the desired concentration. After 6 days, the kill in % is determined. 100% means that all aphids have been killed; 0% means that no aphids have been killed.

[1] = 0.8 ppm active compound, AMS and/or RME each 1000 ppm in spray liquor where named

SMILES | Kill in % after 7d (Bemisia tabaci) [%] | Kill in % after 6d (Aphis gossypii; [1]) [%] | Kill in % after 6d (Aphis gossypii; 4 ppm active compound, RME 1000 ppm in spray liquor where named) [%] | Kill in % after 6d (Myzus persicae; 4 ppm active compound) [%] | Kill in % after 6d (Myzus persicae; 0.8 ppm active compound) [%]
O=C1N=C(N(Cc2ccc(Cl)nc2)C2CC2)CO1 [I-6, 4-[[(6-chloro-3-pyridinyl)methyl]cyclopropylamino]-2(5H)-oxazolone] | 40 | 0 | 40 | 15 | –
CN(Cc1ccc(Cl)nc1)C1=NC(=O)OC1 [I-1, 4-[[(6-chloro-3-pyridinyl)methyl]methylamino]-2(5H)-oxazolone] | – | 35 | – | – | 0

Reference: patent publication US20120004268A1, “INSECTICIDAL COMPOSITIONS COMPRISING CYCLIC CARBONYLAMIDINES” (BAYER CROPSCIENCE AG, priority 2010, published 2012)
